Source: ChEMBL document CHEMBL1130443, “Enhanced DNA photocleavage and binding properties of sapphyrin-polyamine conjugates” (Bioorg Med Chem Lett, 1997)

system: Nucleic Acid; experiment: Compound was measured for the inhibition of DNA cleavage against […] plasmid in the presence of 0.2 M sodium dodecyl sulfate (SDS).; assay type: nucleic-acid assay; conditions: not given

Compound | inhibition
CCc1c(CC)c2cc3nc(cc4[nH]c(c(C)c4CC)c4[nH]c(cc5nc(cc1[nH]2)C(CCC(=O)N(CCO)CCO)=C5C)c(CC)c4C)C(C)=C3CCC(=O)N(CCO)CCO | 100%

system: Nucleic Acid; experiment: Compound was measured for the inhibition of DNA cleavage against […] plasmid in the presence of 2M NaCl.; assay type: nucleic-acid assay; conditions: not given

Compound | inhibition
CCc1c(CC)c2cc3nc(cc4[nH]c(c(C)c4CC)c4[nH]c(cc5nc(cc1[nH]2)C(CCC(=O)NCCNCCN)=C5C)c(CC)c4C)C(C)=C3CCC(=O)NCCNCCN | 87%
CCc1c(CC)c2cc3nc(cc4[nH]c(c(C)c4CC)c4[nH]c(cc5nc(cc1[nH]2)C(CCC(=O)N(CCO)CCO)=C5C)c(CC)c4C)C(C)=C3CCC(=O)N(CCO)CCO | 92%
CCC1=C(CC)c2cc3[nH]c(cc4[nH]c(c(C)c4CC)c4[nH]c(cc5nc(cc1n2)C(CCC(=O)NCCOCCOCCN)=C5C)c(CC)c4C)c(C)c3CCC(=O)NCCOCCOCCN | 66%
CCc1c(CC)c2cc3nc(cc4[nH]c(c(C)c4CC)c4[nH]c(cc5nc(cc1[nH]2)C(CCC(=O)NCCN(CCN)CCN)=C5C)c(CC)c4C)C(C)=C3CCC(=O)NCCN(CCN)CCN | 93%

system: Nucleic Acid; experiment: Compound was measured for the inhibition of DNA cleavage against […] plasmid in the presence of 0.2 M sodium dodecyl sulfate(SDS).; assay type: nucleic-acid assay; conditions: not given

Compound | inhibition
CCc1c(CC)c2cc3nc(cc4[nH]c(c(C)c4CC)c4[nH]c(cc5nc(cc1[nH]2)C(CCC(=O)NCCNCCN)=C5C)c(CC)c4C)C(C)=C3CCC(=O)NCCNCCN | 47%
CCC1=C(CC)c2cc3[nH]c(cc4[nH]c(c(C)c4CC)c4[nH]c(cc5nc(cc1n2)C(CCC(=O)NCCOCCOCCN)=C5C)c(CC)c4C)c(C)c3CCC(=O)NCCOCCOCCN | 31%
CCc1c(CC)c2cc3nc(cc4[nH]c(c(C)c4CC)c4[nH]c(cc5nc(cc1[nH]2)C(CCC(=O)NCCN(CCN)CCN)=C5C)c(CC)c4C)C(C)=C3CCC(=O)NCCN(CCN)CCN | 41%

system: Nucleic Acid; experiment: The C50 value refers to the concentration of compound required to displace 50% of the ethidium bromide from the DNA.; assay type: nucleic-acid assay; conditions: Bos taurus

Compound | C50
CCc1c(CC)c2cc3nc(cc4[nH]c(c(C)c4CC)c4[nH]c(cc5nc(cc1[nH]2)C(CCC(=O)NCCNCCN)=C5C)c(CC)c4C)C(C)=C3CCC(=O)NCCNCCN | 0.127 µM
CCc1c(CC)c2cc3nc(cc4[nH]c(c(C)c4CC)c4[nH]c(cc5nc(cc1[nH]2)C(CCC(=O)N(CCO)CCO)=C5C)c(CC)c4C)C(C)=C3CCC(=O)N(CCO)CCO | 1.2 µM
CCC1=C(CC)c2cc3[nH]c(cc4[nH]c(c(C)c4CC)c4[nH]c(cc5nc(cc1n2)C(CCC(=O)NCCOCCOCCN)=C5C)c(CC)c4C)c(C)c3CCC(=O)NCCOCCOCCN | 0.062 µM
CCc1c(CC)c2cc3nc(cc4[nH]c(c(C)c4CC)c4[nH]c(cc5nc(cc1[nH]2)C(CCC(=O)NCCN(CCN)CCN)=C5C)c(CC)c4C)C(C)=C3CCC(=O)NCCN(CCN)CCN | 0.114 µM
NCCN(CCN)CCN | 28 µM
